Consider 18 compounds from ChEMBL document CHEMBL3039007, “Structure-based identification of OATP1B1/3 inhibitors” (Mol Pharmacol, 2013).

For data set [1], the target named is T1, Solute carrier organic anion transporter family member 1B1 (Homo sapiens, UniProt Q9Y6L6).
T1 sequence (Q9Y6L6 whole entry): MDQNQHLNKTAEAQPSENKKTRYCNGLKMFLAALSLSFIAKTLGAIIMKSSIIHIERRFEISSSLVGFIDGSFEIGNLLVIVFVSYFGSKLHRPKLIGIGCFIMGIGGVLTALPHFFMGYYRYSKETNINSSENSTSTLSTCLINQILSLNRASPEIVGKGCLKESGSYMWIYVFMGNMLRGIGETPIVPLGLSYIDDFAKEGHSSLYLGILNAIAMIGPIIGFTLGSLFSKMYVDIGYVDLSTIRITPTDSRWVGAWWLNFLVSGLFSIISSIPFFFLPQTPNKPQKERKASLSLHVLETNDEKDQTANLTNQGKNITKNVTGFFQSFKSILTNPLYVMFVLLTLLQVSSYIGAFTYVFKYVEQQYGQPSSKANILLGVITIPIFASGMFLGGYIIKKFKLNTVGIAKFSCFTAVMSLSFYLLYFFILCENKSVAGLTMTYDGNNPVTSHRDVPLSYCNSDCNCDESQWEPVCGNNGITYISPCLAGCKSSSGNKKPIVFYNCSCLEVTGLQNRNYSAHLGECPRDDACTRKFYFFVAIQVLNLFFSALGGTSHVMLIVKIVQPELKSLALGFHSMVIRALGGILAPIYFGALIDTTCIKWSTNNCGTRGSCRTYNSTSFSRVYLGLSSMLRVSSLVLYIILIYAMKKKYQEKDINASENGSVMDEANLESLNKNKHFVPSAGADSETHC

Data set [2] addresses T2, Solute carrier organic anion transporter family member 1B3 (Homo sapiens, UniProt Q9NPD5).
T2 sequence (Q9NPD5 whole entry): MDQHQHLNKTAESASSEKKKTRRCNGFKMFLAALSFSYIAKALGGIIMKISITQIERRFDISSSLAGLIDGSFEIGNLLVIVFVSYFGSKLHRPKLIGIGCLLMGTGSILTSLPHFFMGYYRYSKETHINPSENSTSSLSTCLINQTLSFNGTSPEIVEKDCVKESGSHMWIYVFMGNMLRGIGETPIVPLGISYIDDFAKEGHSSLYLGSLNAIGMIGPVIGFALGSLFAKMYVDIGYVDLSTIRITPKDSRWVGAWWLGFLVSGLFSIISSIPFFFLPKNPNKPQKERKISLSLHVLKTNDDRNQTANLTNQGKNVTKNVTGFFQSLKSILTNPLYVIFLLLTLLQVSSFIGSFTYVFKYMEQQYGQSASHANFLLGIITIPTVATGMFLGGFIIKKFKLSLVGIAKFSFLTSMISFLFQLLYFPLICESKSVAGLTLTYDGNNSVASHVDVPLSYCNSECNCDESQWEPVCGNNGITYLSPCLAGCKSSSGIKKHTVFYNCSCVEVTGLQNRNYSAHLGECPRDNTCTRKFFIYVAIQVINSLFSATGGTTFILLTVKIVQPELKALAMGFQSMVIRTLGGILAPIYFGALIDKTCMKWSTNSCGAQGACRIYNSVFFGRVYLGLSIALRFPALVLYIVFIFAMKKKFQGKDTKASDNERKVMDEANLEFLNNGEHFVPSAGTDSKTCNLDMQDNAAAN
Particulars: chinese hamster, cho, 10 µM.

In data set [3] the target is T1, Solute carrier organic anion transporter family member 1B1. Particulars: chinese hamster, cho, 10 µM.
The target in data set [4] is T2, Solute carrier organic anion transporter family member 1B3.
Data set [5] addresses T1, Solute carrier organic anion transporter family member 1B1. The source holds these as a separate data set.
The target in data set [6] is T2, Solute carrier organic anion transporter family member 1B3. The source holds these as a separate data set.

What is called IC50 is the midpoint of a concentration-inhibition curve. A higher IC50 goes with weaker potency in that assay. For orientation: residual activity means the activity still measured, relative to the control. A higher residual activity goes with much activity left. One may read the Ki as a measure of affinity in units of concentration, obtained from inhibition or displacement. Lower therefore signals higher affinity. Turning to `O=C1C=CC(=C(c2ccc(O)cc2)c2ccc(O)cc2)C=C1` [AURIN], the figures for the IC50 in data set [1] and in data set [4] were 2630 nM and 4070 nM, respectively. Also, the residual activity is given as 20.35% in data set [2] and 4.068% in data set [3]. The inhibitory constant (Ki) in data set [5] came out at 1430 nM; in data set [6] it was 3150 nM.

For the compound `C=CC1=C(C)/C(=C/c2[nH]c(Cc3[nH]c(/C=C4\NC(=O)C(C)=C4C=C)c(C)c3CCC(=O)O)c(CCC(=O)O)c2C)NC1=O` [BILIRUBIN], the IC50 in data set [1] is 1320 nM; in data set [4], 3390 nM. Also, the residual activity in data set [2] is recorded as 32.05%; in data set [3] it was 15.29%. For the same compound, the inhibitory constant (Ki) in data set [5] came to 720 nM; in data set [6], 2630 nM.

As to `COC(=O)C[C@H]1C2(C)CC34OC5(C)O[C@@]6([C@H](OC(C)=O)C(OC(C)=O)[C@]7(C)C(/C(=C(/O)C(C)C)C(=O)O[C@H]7c7ccoc7)[C@@]6(O5)[C@H](OC(C)=O)[C@@]3(O)C2OC(=O)C(C)C)[C@]14C` (stereo partly drawn) [BUSSEIN], the IC50 in data set [1] and in data set [4] was 692 nM in each case. Moreover, the residual activity stood at 5.392% in data set [2] and 7.307% in data set [3]. Further, the inhibition constant (Ki) in data set [5] was 380 nM; in data set [6] it was 530 nM.

As for `COC(=O)CC[C@@H](C)[C@H]1CC[C@H]2[C@@H]3[C@H](O)C[C@@H]4C[C@H](O)CC[C@]4(C)[C@H]3C[C@H](O)[C@]12C` [CHOLIC ACID, METHYL ESTER], the IC50 was 8320 nM in data set [1] and 3720 nM in data set [4]. Besides, the residual activity in data set [2] was 40.87%; in data set [3] it was 26.02%. For the same compound, the Ki in data set [5] was found to be 4580 nM; in data set [6], 2890 nM.

As for `COC(=O)C[C@H]1C2(C)CC34OC5(C)O[C@@]6([C@H](OC)C(OC(=O)C(C)C)[C@]7(C)C(/C(=C(/OC)C(C)C)C(=O)O[C@H]7c7ccoc7)[C@@]6(O5)[C@H](OC)[C@@]3(OC)C2OC(C)=O)[C@]14C` (stereo partly drawn) [CHUKRASIN METHYL ETHER], the IC50 was 759 nM in data set [1] and 724 nM in data set [4]. The residual activity in data set [2] is recorded as 3.762%; in data set [3], 6.829%. The Ki in data set [5] turned out to be 420 nM; in data set [6], 560 nM.

On to `CC(C)CCCC1(C)C=Cc2c(O)c3c(c(CCC(C)C)c2O1)OC12C(CC4CC1C(C)(C)OC2(CCC(C)C(=O)O)C4O)C3=O` (stereo not drawn) [DECAHYDROGAMBOGIC ACID], for which the 50% inhibitory concentration (IC50) in data set [1] is 1150 nM; in data set [4] it was 2290 nM. The residual activity in data set [2] is recorded as 18.17%; in data set [3] it was 12.82%. Further, the results for the Ki in data set [5] and in data set [6] were 620 nM and 1770 nM, respectively.

On to `Cc1onc(-c2c(Cl)cccc2Cl)c1C(=O)N[C@@H]1C(=O)N2[C@@H]1SC(C)(C)[C@@H]2C(=O)[O-].O.[Na+]` [DICLOXACILLIN SODIUM], for which the half-maximal inhibitory concentration (IC50) was 676 nM in data set [1] and 2000 nM in data set [4]. Besides, the residual activity in data set [2] is 9.757%; in data set [3] it was 11.45%. Moreover, the Ki in data set [5] stood at 370 nM; in data set [6], 1550 nM.

Consider `CC(C)=CCCC1(C)C=Cc2c(O)c3c(c(CC=C(C)C)c2O1)OC12C(=CC4CC1C(C)(C)OC2(C/C=C(/C)C(=O)O)C4O)C3=O` (stereo not drawn) [DIHYDROGAMBOGIC ACID], for which the IC50 in data set [1] was 2240 nM; in data set [4], 2880 nM. The residual activity in data set [2] came to 17.26%; in data set [3], 14.23%. Further, the Ki stood at 1230 nM in data set [5] and 2240 nM in data set [6].

For the compound `COC(=O)/C(C)=C\CC12OC(C)(C)C3CC(C=C4C(=O)c5c(OC)c6c(c(CC=C(C)C)c5OC431)OC(C)(CCC=C(C)C)C=C6)C2=O` (stereo not drawn) [DIMETHYL GAMBOGATE], the IC50 is 2290 nM in data set [1] and 5130 nM in data set [4]. In addition, the results for the residual activity in data set [2] and in data set [3] were 62.06% and 23.19%, respectively. The results for the Ki in data set [5] and in data set [6] were 1260 nM and 3940 nM, respectively.

As for `O=C(O[C@@H]1Cc2c(O)cc(O)cc2O[C@@H]1c1ccc(O)c(O)c1)c1cc(O)c(O)c(O)c1` [EPICATECHIN GALLATE], the IC50 in data set [1] is 3800 nM; in data set [4], 4470 nM. Also, the residual activity in data set [2] was 25.25%; in data set [3], 46.4%. Also, the Ki in data set [5] turned out to be 2070 nM; in data set [6] it was 3460 nM.

Regarding `CCC(=O)O[C@H]1[C@H](O[C@@H]2[C@@H](C)[C@H](O[C@H]3C[C@@](C)(OC)[C@@H](O)[C@H](C)O3)[C@@H](C)C(=O)O[C@H](CC)[C@@](C)(O)[C@H](O)[C@@H](C)C(=O)[C@H](C)C[C@@]2(C)O)O[C@H](C)C[C@@H]1N(C)C.CCCCCCCCCCCCOS(=O)(=O)O` [ERYTHROMYCIN ESTOLATE], the IC50 in data set [1] was 4370 nM; in data set [4] it was 3090 nM. For the same compound, the values for the residual activity in data set [2] and in data set [3] were 7.433% and 6.903%, respectively. The Ki was found to be 2410 nM in data set [5] and 2350 nM in data set [6].

With `CCOC(=O)CCC(=O)O[C@H]1[C@H](O[C@@H]2[C@@H](C)[C@H](O[C@H]3C[C@@](C)(OC)[C@@H](O)[C@H](C)O3)[C@@H](C)C(=O)O[C@H](CC)[C@@](C)(O)[C@H](O)[C@@H](C)C(=O)[C@H](C)C[C@@]2(C)O)O[C@H](C)C[C@@H]1N(C)C` [ERYTHROMYCIN ETHYLSUCCINATE], the IC50 in data set [1] was 3020 nM; in data set [4], 2090 nM. Moreover, the results for the residual activity in data set [2] and in data set [3] were 30.5% and 3.592%, respectively. In addition, the results for the Ki in data set [5] and in data set [6] were 1670 nM and 1610 nM, respectively.

As for `COC(=O)c1c(OC)cc2c(c1C)Oc1c(Cl)c(O)c(Cl)c(C)c1C(=O)O2` [GANGALEOIDIN], the IC50 was 102 nM in data set [1] and 2630 nM in data set [4]. Moreover, the figures for the residual activity in data set [2] and in data set [3] were 15.01% and 4.093%, respectively. For the same compound, the Ki was determined as 60 nM in data set [5] and 2020 nM in data set [6].

In the case of `CC(C)=CCCC1(C)C=Cc2c(O)c3c(c(CC=C(C)C)c2O1)OC12C(=CCCC1C(C)(C)O[C@@]2(C/C=C(\C)C(=O)O)C(=O)O)C3=O` (stereo partly drawn) [GARCINOLIC ACID], the values for the IC50 in data set [1] and in data set [4] were 1170 nM and 2240 nM, respectively. Further, the residual activity is listed as 3.626% in data set [2] and 30.6% in data set [3]. Moreover, the Ki in data set [5] amounted to 650 nM; in data set [6], 1730 nM.

Take `O=c1c(-c2ccc(O)cc2)coc2cc(O)cc(O)c12` [GENISTEIN]: the IC50 in data set [1] is 9120 nM; in data set [4], 3890 nM. The residual activity in data set [2] was 39.06%; in data set [3] it was 95.56%. The Ki was 5000 nM in data set [5] and 2960 nM in data set [6].

For the compound `CC(=O)OC/C=C(C)/C=C/C=C(C)/C=C/C1=C(C)CCCC1(C)C` [GILRETINOL ACETATE], the values for the IC50 in data set [1] and in data set [4] were 2240 nM and 5010 nM, respectively. For the same compound, the residual activity is reported as 23.53% in data set [2] and 19.44% in data set [3]. The values for the Ki in data set [5] and in data set [6] were 1220 nM and 3890 nM, respectively.

For the compound `CC1(C)CC[C@]2(C(=O)O)CC[C@]3(C)C(=CC[C@@H]4[C@@]5(C)CC[C@H](O)[C@@](C)(CO)[C@@H]5CC[C@]43C)[C@@H]2C1` [HEDERAGENIN], the IC50 in data set [1] was 3800 nM; in data set [4], 891 nM. The residual activity turned out to be 18.59% in data set [2] and 40.18% in data set [3]. Further, the Ki in data set [5] turned out to be 2110 nM; in data set [6], 680 nM.

Regarding `O=C(O)c1cc2ccccc2c(Cc2c(O)c(C(=O)O)cc3ccccc23)c1O.OCCOCCN1CCN(C(c2ccccc2)c2ccc(Cl)cc2)CC1` [HYDROXYZINE PAMOATE], the IC50 in data set [1] was 813 nM; in data set [4] it was 1230 nM. Also, the values for the residual activity in data set [2] and in data set [3] were 13.57% and 12.16%, respectively. The Ki in data set [5] was 450 nM; in data set [6], 940 nM.
